According to patent US20170058264A1, “FORMATION OF MULTICELLULAR TUMOROIDS AND USES THEREOF” (UNIVERSITY OF SOUTH FLORIDA, priority 2014, published 2017):

Columns and labels:
Format in all cases: cell-based
[1] = tested on: BT474 tumoroids (SCTs and MCTs); assay: Quantibody Array (multiplexed sandwich ELISA) of factors in day 5 culture supernatants of BT474 SCTs and MCTs
Description: BT474 tumoroids (SCTs, blue bars and MCTs, red bars) were cultured in the presence or absence of Lapatinib (0.5-12.5 μM), as in FIGS. 9A-9B, and the levels of IL-6, IL-8, MCP-1 in the day 5 culture supernatants were determined by Sandwich ELISA (FIGS. 20-21). * p<0.05.
BT474 tumoroids (SCTs, blue bars and MCTs, red bars) were cultured in the presence or absence of Lapatinib (0.5-12.5 μM), as in FIGS. 9A-9B, and the levels of PDGF-BB, DKK-1, OPG in the day 5 culture supernatants were determined by Sandwich ELISA (FIGS. 20-21). * p<0.05.
BT474 tumoroids (SCTs, blue bars and MCTs, red bars) were cultured in the presence or absence of Lapatinib (0.5-12.5 μM), as in FIGS. 9A-9B, and the levels of MMP-3 in the day 5 culture supernatants were determined by Sandwich ELISA (FIGS. 20-21). * p<0.05.
Additionally, to characterize factors and molecules released in SCTs and MCTs culture, a human Quantibody Array (RayBiotech Inc.), which utilizes a multiplexed sandwich ELISA assay and enables detection of multiple proteins/factors simultaneously, was used. […] This list includes adhesion molecules (E-selectin, ICAM-1, P-Cadherin, VE-cadherin), \growth factors (aFGF, activin A, […] (AR), bFGF, bone morphogenic protein (BMP)-2, BMP-4, BMP-6, BMP-7, BMP-9, dickkopf-1 (DKK-1), IGF-1, osteoprotegerin (OPG), osteopontin (OPN), PDGF-BB, TGFβ1, TGFβ2, TGFβ3), chemokines (monocyte chemotactic protein 1 (MCP-1)), macrophage inflammatory protein (MIP)-1α, VCAM-1), cytokines (IL-1α, IL-1β, IL-6, IL-8, IL-11, IL-17, M-CSF), receptor activator of NFkB (RANK), osteoactivin, SDF-1α, TNF related activation induced cytokine (TRANCE)) and matrix metalloproteinases (MMPs), such as MMP-2, -3, -9, -13.
To determine whether any of these factors are expressed in SCTs and MCTs, we incubated QAH-BMA-1000 array with a pool of culture supernatants of BT474-SCTs and MCTs in quadruplets. Experiments were conducted using manufacturer's protocol. An appropriate positive control was used to normalize the signal intensity. […] These include, growth factors, such as PDGF-BB, OPG and DKK-1, chemokine such as MCP-1, IL-6 and IL-8, and protease MMP-3 (see e.g. FIGS. 23A-25.)
Lapatinib treated cultures were examined for factors that are found differentially expressed in MCTs, compared to SCTs.

BT474 tumoroids [2] = assay: VEGF, IL-6 and TGF-β1 in day 5 culture supernatants of BT474 tumoroids by ELISA; conditions: co-cultured tumoroids; Lapatinib about 2.5 μM-5 μM; day 5 supernatants
Description: BT474 tumoroids were monocultured or co-cultured in the presence or absence of Lapatinib (2.5-10 μM) and the levels of VEGF, IL-6, and TGF-β1 in the day 5 culture supernatants were determined by ELISA. * p<0.05.
To identify and evaluate the biomarkers of clinical efficacy, both monoculture and co-culture tumoroids were treated with increasing concentrations of Lapatinib (about 0 to about 10 μM). Five days after culture, the supernatants of the culture were tested for levels of VEGF, IL-6, and TGF-β. […] BT474 tumoroids were mono-cultured or co-cultured in the presence or absence of Lapatinib (2.5-10 μM) and the levels of VEGF, IL-6, and TGF-β1 in the day 5 culture supernatants were determined by ELISA. * p<0.05.

BT474 tumoroids [3] = assay: Lapatinib response of BT474 tumoroids in monoculture or co-culture, cell viability by PrestoBlue assay; conditions: Homo sapiens, BT-474, 72 h, about 72 hours
Description: (§1) On day 2 after culturing, cells were treated with the indicated concentrations (μM) of Lapatinib for about 72 hours. Cell viability was measured by PrestoBlue® assay.
(§2) The sensitivity of tumoroids derived from monoculture or co-culture of BT474 and HCC1569 to Lapatinib was examined. Lapatinib is a dual small molecule tyrosine kinase inhibitor targeting EGFR and HER2. […] Similar results were obtained when established tumoroids were treated with Lapatinib.

[4] = molecular target: BT474 co-cultured tumoroids; assay: Ki-67 expression by immunohistochemistry and tumoroid formation in Lapatinib treated BT474 tumoroids; conditions: 72 hours
Description: Ki-67 can be used as a surrogate marker of clinical efficacy in cancer trials. Expression of Ki-67. Monoculture and Co-culture tumoroids were treated with increasing concentrations of Lapatinib (0-10 μM). Tumoroids were fixed and immunostained for […].

HCC1569 tumoroids = assay: Lapatinib response of HCC1569 tumoroids in monoculture or co-culture, cell viability by PrestoBlue assay; conditions: HCC1569 cultured in the presence of ECs and CAFs vs monoculture
Description: as §1, §2

BT-474 SCTs = assay: Lapatinib response of BT-474 SCTs cultured on Matrigel or FiSS, Presto Blue cell viability; conditions: 3 d old SCTs; examined after 72 hrs
Description: Cells (3×10^3) were cultured on a layer of Matrigel coated plate in the presence of growth medium supplemented with 10% Matrigel. Three days after culture, cells were treated with indicated concentrations of Lapatinib and examined after 72 hrs. Spheroids were stained with calcein AM and examined by fluorescent microscope.
To benchmark FiSS-tumoroids against Matrigel-based 3D-culture for prediction of clinical efficacy, 3 d old BT-474 SCTs (cultured on Matrigel or FiSS) were treated with Lapatinib and examined tumoroid formation (FIGS. 26A-26D) and cell viability (FIGS. 27A-27B). Although Matrigel induced numerous smaller size tumoroids compared to FiSS tumoroids, their response to Lapatinib was similar as shown in FIGS. 27A-27B.

BT474 tumoroids [5] = assay: High-content analysis (Operetta) of Ki-67 immunostaining in BT474 tumoroids; conditions: different concentrations of Lapatinib; about 72 hrs
Description: Quantification of immunostaining was completed using Operetta.
To optimize quantification of high content imaging for BT474 tumoroids were incubated for 72 h and then imaged on the Operetta HCI System with a 20× objective. Single plane z-stacked images of BT474 tumoroids on scaffolds were stained with DAPI and images were acquired using the Operetta high content imaging system from Perkin Elmer. Representative fields were selected at 20× magnification and z-stacks of these fields were acquired with an interval of 2 um between each z-plane. Z-stacks were analyzed using the image processing software ImageJ (NIH). […] Using HCA we have quantified changes in Ki-67 expression in BT474 tumoroids treated with different concentrations of Lapatinib.

[6] = MCTs, Lapatinib 0.5-12.5 μM, dose dependent

- IC50 (BT474 tumoroids [3]; BT474 cells cultured on 2D or FiSS (monoculture)): < 2.5 µM
- IC50 (BT474 tumoroids [3]; MCTs, in the presence of ECs and CAFs): > 10 µM
- Ki-67 staining ([4]; Lapatinib 2.5 μM): completely abrogated
- tumoroid formation ([4]; Lapatinib 2.5 mM as printed): inhibited tumoroid formation
- Ki-67 expression (relative intensity, HCA) (BT474 tumoroids [5]): dose-dependent Ki-67 expression
SMILES: CS(=O)(=O)CCNCc1ccc(-c2ccc3ncnc(Nc4ccc(OCc5cccc(F)c5)c(Cl)c4)c3c2)o1 [Lapatinib]
- reduction of MCP-1 expression ([1]; MCTs, 12.5 uM Lapatinib): ≤ 50%
- DKK-1 expression ([1]; MCTs, Lapatinib 0.5-12.5 μM): reduced significantly
- MMP-3 expression ([1]; MCTs, Lapatinib 0.5-12.5 μM): reduced only marginally
- IL-6 in culture supernatants [1, 6]: reduced to basal level
- IL-8 in culture supernatants [1, 6]: reduced to basal level
- PDGF-BB expression ([1]; SCTs and MCTs, Lapatinib 0.5-12.5 μM): did not alter
- MCP-1 expression ([1]; SCTs, Lapatinib 0.5-12.5 μM): abolished MCP-1 expression completely
- secretion of IL-6 (BT474 tumoroids [2]): significantly decreased
- secretion of TGF-β (BT474 tumoroids [2]): significantly decreased
- secretion of VEGF (BT474 tumoroids [2]): significantly decreased
- resistance to Lapatinib (HCC1569 tumoroids): increase in resistance
- response to Lapatinib (cell viability), Matrigel vs FiSS tumoroids (BT-474 SCTs): similar
